Reference: ChEMBL document CHEMBL3997795, “Conjugates of 2,4-Dihydroxybenzoate and Salicylhydroxamate and Lipocations Display Potent Antiparasite Effects by Efficiently Targeting the Trypanosoma brucei and Trypanosoma congolense Mitochondrion” (J Med Chem, 2017)
The source made the active and inactive calls. The calls are words filed in the database; no cut-off is given here.

How the values were obtained:
[1] = test system: Trypanosoma brucei brucei; assay: Anti-parasitic activity against bloodstream trypomastigote stage of wild-type Trypanosoma brucei brucei Lister 427 after 48 hrs by alamar blue based fluorescence assay; type: functional; conditions: Lister 427, 48 h
[2] = Cytostatic activity against HEK293T cells after 30 hrs by resazurin based fluorimetric assay; type: cell-based, HEK-293T; conditions: human
[3] = Cytotoxicity against HEK cells up to 50 uM after 30 hrs by resazurin based fluorimetric assay; type: cell-based; conditions: human
[4] = Selectivity index, ratio of CC50 for HEK293T cells to EC50 for bloodstream trypomastigote stage of wild-type Trypanosoma brucei brucei Lister 427; type: toxicity; conditions: human, read-out: Ratio CC50/EC50
[5] = test system: Trypanosoma brucei brucei; assay: Anti-parasitic activity against diminazene, pentamidine and melaminophenyl arsenical-resistant bloodstream trypomastigote stage of Trypanosoma brucei brucei B48 harboring TbAT1 deletion mutant after 48 hrs by alamar blue based fluorescence assay; type: functional; conditions: B48, 48 h
Trypanosoma congolense = assay: Anti-parasitic activity against bloodstream form of Trypanosoma congolense IL3000 after 48 hrs by alamar blue based fluorescence assay; type: functional; conditions: IL3000, 48 h
[6] = Cytotoxicity against HFF cells after 30 hrs by resazurin based fluorimetric assay; type: cell-based; conditions: human
[7] = Selectivity index, ratio of CC50 for HFF cells to EC50 for bloodstream trypomastigote stage of wild-type Trypanosoma brucei brucei Lister 427; type: toxicity; conditions: human, read-out: Ratio CC50/EC50
[8] = Selectivity index, ratio of CC50 for HFF cells to EC50 for bloodstream form of Trypanosoma congolense IL3000; type: toxicity; conditions: human, read-out: Ratio CC50/EC50
[9] = test system: Trypanosoma brucei brucei; assay: Trypanocidal activity against bloodstream trypomastigote stage of wild-type Trypanosoma brucei brucei Lister 427 assessed as inhibition of respiration in presence of glycerol; type: functional
[10] = test system: Trypanosoma brucei brucei; assay: Resistant factor, ratio of EC50 for bloodstream trypomastigote stage of wild-type Trypanosoma brucei brucei Lister 427 assessed as inhibition of respiration in presence of glycerol to EC50 for bloodstream trypomastigote stage of wild-type Trypanosoma brucei brucei Lister 427 assessed as inhibition of respiration in absence of glycerol; type: functional
[11] = Resistance factor, ratio of EC50 for diminazene, pentamidine and melaminophenyl arsenical-resistant bloodstream trypomastigote stage of Trypanosoma brucei brucei B48 harboring TbAT1 deletion mutant to EC50 for bloodstream trypomastigote stage of wild-type Trypanosoma brucei brucei Lister 427; type: functional
[12] = Inhibition of recombinant MTS-deficient N-terminal His6-tagged and SUMO-tagged Trypanosoma alternative oxidase expressed in Escherichia coli FN102 using ubiquinol-1 as substrate
[13] = test system: Trypanosoma brucei brucei; assay: Induction of mitochondrial membrane hyperpolarization in bloodstream trypomastigote stage of wild-type Trypanosoma brucei brucei Lister 427 at 10 uM after 10 mins by TMRE dye based flow cytometry; type: functional
[14] = test system: Trypanosoma brucei brucei; assay: Trypanocidal activity against bloodstream trypomastigote stage of wild-type Trypanosoma brucei brucei Lister 427 assessed as inhibition of respiration at 10 uM in presence of glycerol; type: functional
[15] = test system: Trypanosoma brucei brucei; assay: Trypanocidal activity against bloodstream trypomastigote stage of wild-type Trypanosoma brucei brucei Lister 427 assessed as inhibition of respiration at 10 uM; type: functional
[16] = Selectivity index, ratio of CC50 for HEK293T cells to EC50 for bloodstream form of Trypanosoma congolense IL3000; type: toxicity; conditions: human, read-out: Ratio CC50/EC50
[17] = test system: Trypanosoma brucei brucei; assay: Induction of plasma membrane disruption in bloodstream trypomastigote stage of wild-type Trypanosoma brucei brucei Lister 427 assessed as increase in propidium iodide influx after 6 hrs by fluorimetric assay; type: functional
[18] = test system: Trypanosoma brucei brucei; assay: Trypanocidal activity against bloodstream trypomastigote stage of wild-type Trypanosoma brucei brucei Lister 427 at 3 times EC50 after 4 hrs by propidium iodide staining based fluorimetric assay; type: functional
[19] = test system: Trypanosoma brucei brucei; assay: Reduction in oxygen consumption in bloodstream trypomastigote stage of wild-type Trypanosoma brucei brucei Lister 427 measured immediately for 120 mins by fluorescent oxygen reporter probe based fluorimetric assay; type: functional
[20] = test system: Trypanosoma brucei brucei; assay: Induction of mitochondrial membrane depolarization in bloodstream trypomastigote stage of wild-type Trypanosoma brucei brucei Lister 427 at 0.005 uM after 10 mins by TMRE dye based flow cytometry; type: functional
[21] = test system: Trypanosoma brucei brucei; assay: Cell cycle arrest in bloodstream trypomastigote stage of wild-type Trypanosoma brucei brucei Lister 427 assessed as accumulation at G1 phase at 0.005 uM after 24 hrs by propidium iodide staining-based flow cytometry; type: functional
[22] = test system: Trypanosoma brucei brucei; assay: Cell cycle arrest in bloodstream trypomastigote stage of wild-type Trypanosoma brucei brucei Lister 427 assessed as accumulation at S phase at 0.005 uM after 24 hrs by propidium iodide staining-based flow cytometry; type: functional
[23] = test system: Trypanosoma brucei brucei; assay: Cell cycle arrest in bloodstream trypomastigote stage of wild-type Trypanosoma brucei brucei Lister 427 assessed as accumulation at G2 phase at 0.005 uM after 24 hrs by propidium iodide staining-based flow cytometry; type: functional
[24] = test system: Trypanosoma brucei brucei; assay: Anti-parasitic activity against bloodstream trypomastigote stage of Trypanosoma brucei brucei Lister 427 over-expressing TAO relative to bloodstream trypomastigote stage of wild-type Trypanosoma brucei brucei Lister 427; type: functional
[25] = test system: Trypanosoma brucei brucei; assay: Induction of mitochondrial membrane depolarization in bloodstream trypomastigote stage of wild-type Trypanosoma brucei brucei Lister 427 at 100 nM after 10 mins by TMRE dye based flow cytometry; type: functional
[26] = test system: Trypanosoma brucei brucei; assay: Reduction in oxygen consumption in bloodstream trypomastigote stage of wild-type Trypanosoma brucei brucei Lister 427 at 50 uM measured immediately for 120 mins by fluorescent oxygen reporter probe based fluorimetric assay; type: functional

SMILES | EC50 [1] [nM] | CC50 at 30 h [2] [nM] | Activity [3] | selectivity ratio [4] | EC50 [5] [nM] | EC50 (Trypanosoma congolense) [nM] | EC50 [9] [nM] | Ratio EC50 [10] | Ratio EC50 [11] | selectivity ratio [16] | also measured
O=C(NO)c1ccc(OCCCCCCCCCC[P+](c2ccccc2)(c2ccccc2)c2ccccc2)cc1O.[Br-] | 200 | > 400000 | Non-Toxic | > 2040 |  |  |  |  |  |  | 
O=C(OCCCCCCCCCCCCCCCC[n+]1cccc2ccccc21)c1ccc(O)cc1O.[Br-] | 140 |  |  |  | 140 | 3000 | 89 | 0.62 | 1.01 |  | CC50 at 30 h [6]: 345000 nM; selectivity ratio [7]: 2410; selectivity ratio [8]: 115; IC50 [12]: > 5000 nM
Cc1c(C)c2c(c(C)c1O)CCC(C)(COc1ccc(CC3SC(=O)NC3=O)cc1)O2 (stereo not given) |  |  |  |  |  |  |  |  |  |  | Activity [13]: Active
N=C(N)c1ccc(/N=N/Nc2ccc(C(=N)N)cc2)cc1 [DIMINAZENE] | 65 |  |  |  | 780 | 151 | 63 | 0.97 |  |  | 
BrCCCCCCCCCC[P+](c1ccccc1)(c1ccccc1)c1ccccc1.[Br-] | 1.8 | 6010 | Non-Toxic | 3340 | 1.2 | 950 |  |  | 0.7 | 6.3 | inhibition [14]: inactive; inhibition [15]: inactive
O=C(OCCCCCCCC[P+](c1ccccc1)(c1ccccc1)c1ccccc1)c1ccc(O)cc1O.[Br-] | 73 | 7730 | Non-Toxic | 106 | 68 | 4300 | 84 | 1.16 | 0.94 | 1.8 | 
O=C(O)c1ccc(O)cc1O [2,4-DIHYDROXYBENZOIC ACID] | 17100 |  |  |  |  |  | 19000 | 1.11 |  |  | IC50 [12]: 116000 nM
O=C(OCCCCCCCCCCCCCC[n+]1cccc2ccccc21)c1ccc(O)cc1O.[Br-] | 100 |  |  |  | 125 | 3800 | 78 | 0.75 | 1.21 |  | CC50 at 30 h [6]: 172000 nM; selectivity ratio [7]: 1660; selectivity ratio [8]: 45.3; Activity [17]: Dose-dependent effect; Activity [18]: Active; IC50 [12]: 1360 nM
O=C(OCCCCCCCCCCCCBr)c1ccc(O)cc1O | 14500 | > 400000 | Non-Toxic | > 28 | 14900 | 52100 |  |  | 1.03 | > 7.7 | 
O=C(OCCCCCCCCCCCC[n+]1cccc2ccccc21)c1ccc(O)cc1O.[Br-] | 330 |  |  |  | 347 | 7000 | 230 | 0.69 | 1.05 |  | CC50 at 30 h [6]: 202000 nM; selectivity ratio [7]: 609; selectivity ratio [8]: 28.7; IC50 [12]: > 5000 nM
O=C(OCCCCCCCCC[P+](c1ccccc1)(c1ccccc1)c1ccccc1)c1ccc(O)cc1O.[Br-] | 5.9 | 4680 | Non-Toxic | 789 | 7.4 | 410 | 5 | 0.88 | 1.24 | 11.5 | 
O=C(OCCCCCCCCCCCCCC[P+](c1ccccc1)(c1ccccc1)c1ccccc1)c1ccc(O)cc1O.[Br-] | 1.5 |  |  |  | 1.2 | 61 | 0.8 | 0.55 | 0.78 |  | Activity [19]: Dose-dependent effect; Activity [20]: Active; CC50 at 30 h [6]: 59700 nM; selectivity ratio [7]: 23400; selectivity ratio [8]: 982; Activity [17]: Dose-dependent effect; Activity [18]: Active; Activity [21]: Active; Activity [22]: Active; Activity [23]: Active; IC50 [12]: 1460 nM; fold change (FC) [24]: 2.6
O=C(OCCCCCCCCCC[P+](c1ccccc1)(c1ccccc1)c1ccccc1)c1ccc(O)cc1O.[Br-] | 1.3 | 2330 | Non-Toxic | 1770 | 1.1 | 180 | 2 | 1.26 | 0.86 | 13.2 | 
CC(C)[C@@H]1NC(=O)[C@H](C)OC(=O)[C@@H](C(C)C)NC(=O)[C@@H](C(C)C)OC(=O)[C@H](C(C)C)NC(=O)[C@H](C)OC(=O)[C@@H](C(C)C)NC(=O)[C@@H](C(C)C)OC(=O)[C@H](C(C)C)NC(=O)[C@H](C)OC(=O)[C@@H](C(C)C)NC(=O)[C@@H](C(C)C)OC1=O |  |  |  |  |  |  |  |  |  |  | Activity [25]: Active
O=C(OCCCCCCCCCCCC[P+](c1ccccc1)(c1ccccc1)c1ccccc1)c1ccc(O)cc1O.[Br-] | 1.2 | 1650 | Non-Toxic | 1330 | 1.2 | 42 | 1.2 | 1.01 | 0.96 |  | 
O=C(NO)c1ccc(OCCCCCCCC[P+](c2ccccc2)(c2ccccc2)c2ccccc2)cc1O.[Br-] | 400 | > 400000 | Non-Toxic | > 1000 |  | 27200 |  |  |  | > 14.7 | 
O=C(NO)c1ccccc1O [SALICYLHYDROXAMIC ACID] | 38700 |  |  |  |  |  | 7000 |  |  |  | Activity [19]: Dose-dependent effect; Activity [26]: Active; fold change (FC) [24]: 1.6
O=COCCCCCCCCCCOC(=O)c1ccc(O)cc1O | 31800 | > 400000 | Non-Toxic | > 12 | 22100 | > 100000 |  |  | 0.69 |  | 
O=C(OCCCCCCCCCCCCCCCCBr)c1ccc(O)cc1O | 45700 | > 400000 | Non-Toxic | > 9 | 49000 | > 100000 |  |  | 1.07 |  | 
O=C(NO)c1ccc(OCCCCCCCCCCCC[P+](c2ccccc2)(c2ccccc2)c2ccccc2)cc1O.[Br-] | 140 | > 400000 | Non-Toxic | > 2860 |  | 46400 | 158 | 1.13 |  | > 8.6 | 
O=C(OCCCCCCCCCCCCCCCC[P+](c1ccccc1)(c1ccccc1)c1ccccc1)c1ccc(O)cc1O.[Br-] | 9 |  |  |  | 8 | 122 | 5 | 0.6 | 0.91 |  | CC50 at 30 h [6]: 249000 nM; selectivity ratio [7]: 27700; selectivity ratio [8]: 2040; IC50 [12]: > 5000 nM
N=C(N)c1ccc(OCCCCCOc2ccc(C(=N)N)cc2)cc1 [PENTAMIDINE] | 2.8 |  |  |  | 940 |  | 4 | 1.32 | 98 |  | 
